From patent US10799439B2, “Coating of clay micro-tubes on surfaces of hair and natural fibers” (Louisiana Tech Research Corporation, priority 2017, dated 2020)

Assay: dye/drug loading of halloysite micro-tubes (TGA)
Assay type: physicochemical
Conditions: SDS-hydrophobized halloysite lumen
Procedure: One example method of loading the micro-tubes with a (substantially) water soluble hair dye agent uses the dye Indigo carmine. The Indigo carmine dye is dissolved in 1 mL of DI water at a ratio of 4% by weight (i.e., 40 mg of dye) under sonication. 40 mg of halloysite is added to the dispersion and sonicated until a homogeneous dispersion is obtained. The dispersion is place under a low vacuum (e.g., at approximately 1 psi or less) for three cycles, one hour for each cycle. The halloysite is then thoroughly washed with DI water five time by centrifuging at 10,600 rcf for three minutes. The washed halloysite was then dried in a hot air oven at 60° C. This procedure produced a 6 to 8 weight percent dye loading efficiency, i.e., weight of dye with respect to the weight of clay micro-tubes. However, different procedures may be used and generally it is desirable to generate micro-tubes loaded to about 5 to 10 weight percent dye loading efficiency, but in other embodiments, the loading efficiency could be between 2 to 35 weight percent (or any sub-range in between, with one specific example being 2% to 15%).
One example method of loading the micro-tubes with a (substantially) water insoluble hair dye agent uses the dye Lawsone. It is preferable to modify the halloysite lumen surface to allow more ready binding of nonpolar molecules. […]

SMILES: CC1(C)C(C=C(Cl)Cl)C1C(=O)OCc1cccc(Oc2ccccc2)c1 (stereo not shown) [permethrin, Permethrin]
- content in loaded nanotubes (TGA analysis): 3-5 wt. %
